Measured values taken from US9346815B2, “5-chloro-2-difluoromethoxyphenyl pyrazolopyrimidine compounds, compositions and methods of use thereof” (Genentech, Inc., priority 2014, dated 2016).

Columns and labels:
[1] = biological target: isolated recombinant JAK1 kinase domain (Homo sapiens (Human), UniProt P23458); experiment: JAK1 enzyme assay (Caliper LabChip, peptide phosphorylation); format: biochemical; settings: isolated recombinant JAK1 kinase domain, 25 μM ATP
[2] = test system: JAK1-dependent STAT6 phosphorylation downstream of IL-13 stimulation in TF-1 human erythroleukemia cells; experiment: JAK1 pathway assay in TF-1 cells (IL-13-pSTAT6, MSD); format: cell-based; settings: Homo sapiens, TF-1, TF-1 cells, read-out: IL13-pSTAT6 EC50_TF-1
How it was run: (§1)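 TF-1 cells starved of GM-CSF overnight, assayed serum-free; BEAS-2B cells in complete growth medium. Lysate pSTAT6 measured by MSD; EC50 derived.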

[3] = test system: JAK1-dependent STAT6 phosphorylation downstream of IL-13 stimulation in BEAS-2B human bronchial epithelial cells; experiment: JAK1 pathway assay in BEAS-2B cells (IL-13-pSTAT6, MSD); format: cell-based; settings: read-out: IL13-pSTAT6 EC50 (uM)_BEAS-2B
How it was run: as §1

[4] = biological target: isolated recombinant JAK2 kinase domain (Homo sapiens (Human), UniProt O60674); experiment: JAK2 enzyme assay (Caliper LabChip, peptide phosphorylation); format: biochemical; settings: 25 μM ATP
Sequence of isolated recombinant JAK2 kinase domain (O60674 849-1124): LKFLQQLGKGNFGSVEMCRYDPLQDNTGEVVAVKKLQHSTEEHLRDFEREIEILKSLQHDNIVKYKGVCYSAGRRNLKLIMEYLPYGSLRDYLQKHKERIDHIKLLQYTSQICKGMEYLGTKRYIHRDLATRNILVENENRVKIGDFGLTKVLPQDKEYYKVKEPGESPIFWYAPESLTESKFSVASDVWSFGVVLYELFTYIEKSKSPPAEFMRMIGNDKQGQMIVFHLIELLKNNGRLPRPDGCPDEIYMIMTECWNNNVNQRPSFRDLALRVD

Sequence of isolated recombinant JAK1 kinase domain (P23458 875-1153): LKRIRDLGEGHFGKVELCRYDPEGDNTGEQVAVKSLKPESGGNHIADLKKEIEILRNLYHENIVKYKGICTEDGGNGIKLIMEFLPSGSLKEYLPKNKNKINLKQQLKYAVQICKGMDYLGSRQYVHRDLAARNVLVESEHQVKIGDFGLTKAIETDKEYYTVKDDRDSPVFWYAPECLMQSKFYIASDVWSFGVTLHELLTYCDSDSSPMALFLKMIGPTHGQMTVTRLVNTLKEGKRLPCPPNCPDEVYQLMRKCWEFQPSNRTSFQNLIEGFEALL

Compound | Ki [1] | EC50 [2] | Ki [4] | EC50 [3]
CN1CC2CN(C(=O)Cn3cc(NC(=O)c4c(N)nn5cccnc45)c(-c4cc(Cl)ccc4OC(F)F)n3)CC2C1 (stereo not drawn) [Example 9, 2-amino-N-[3-[5-chloro-2-(difluoromethoxy)phenyl]-1-[2-(2-methyl-1,3,3a,4,6,6a-hexahydropyrrolo[3,4-c]pyrrol-5-yl)-2-oxo-ethyl]pyrazol-4-yl]pyrazolo[1,5-a]pyrimidine-3-carboxamide] | 0.71 nM | 15.6 nM | 0.28 nM | 0.554 µM
CC(C)CN1C[C@@H]2CN(C(=O)Cn3cc(NC(=O)c4cnn5cccnc45)c(-c4cc(Cl)ccc4OC(F)F)n3)C[C@@H]2C1 [Example 28, N-[1-[2-[(3aS,6aR)-2-isobutyl-1,3,3a,4,6,6a-hexahydropyrrolo[3,4-c]pyrrol-5-yl]-2-oxo-ethyl]-3-[5-chloro-2-(difluoromethoxy)phenyl]pyrazol-4-yl]pyrazolo[1,5-a]pyrimidine-3-carboxamide] | 0.82 nM | 3.5 nM | 0.84 nM | 0.177 µM
O=C(Nc1cn(CC(=O)N2C[C@H]3CN(CC4CCC(F)(F)CC4)C[C@H]3C2)nc1-c1cc(Cl)ccc1OC(F)F)c1cnn2cccnc12 [Example 33, N-[1-[2-[(3aR,6aS)-2-[(4,4-difluoro-cyclohexyl)methyl]-1,3,3a,4,6,6a-hexahydropyrrolo[3,4-c]pyrrol-5-yl]-2-oxo-ethyl]-3-[5-chloro-2-(difluoromethoxy)phenyl]pyrazol-4-yl]pyrazolo[1,5-a]pyrimidine-3-carboxamide] | 0.66 nM | 6.2 nM | 0.49 nM | 0.0485 µM
O=C(Nc1cn(CC(=O)N2C[C@H]3CN(CC4CCC4)C[C@H]3C2)nc1-c1cc(Cl)ccc1OC(F)F)c1cnn2cccnc12 [Example 40, N-[1-[2-[(3aR,6aS)-2-(cyclobutylmethyl)-1,3,3a,4,6,6a-hexahydropyrrolo[3,4-c]pyrrol-5-yl]-2-oxo-ethyl]-3-[5-chloro-2-(difluoromethoxy)phenyl]pyrazol-4-yl]pyrazolo[1,5-a]pyrimidine-3-carboxamide] | 0.65 nM | 3.8 nM | 0.61 nM | 0.128 µM
NC1CCN(C(=O)Cn2cc(NC(=O)c3cnn4cccnc34)c(-c3cc(Cl)ccc3OC(F)F)n2)CC1 [Example 66, N-[1-[2-(4-amino-1-piperidyl)-2-oxo-ethyl]-3-[5-chloro-2-(difluoromethoxy)phenyl]pyrazol-4-yl]pyrazolo[1,5-a]pyrimidine-3-carboxamide] | 0.58 nM | 35.6 nM | – | 0.335 µM
C[N+](C)(CCCc1ccccc1)C1CCN(C(=O)Cn2cc(NC(=O)c3cnn4cccnc34)c(-c3cc(Cl)ccc3OC(F)F)n2)CC1 [Example 124, [1-[2-[3-[5-chloro-2-(difluoromethoxy)phenyl]-4-(pyrazolo[1,5-a]pyrimidine-3-carbonylamino)pyrazol-1-yl]acetyl]-4-piperidyl]-dimethyl-(3-phenylpropyl)ammonium] | – | 87.9 nM | – | 0.535 µM
CN(C)C1CCN(c2nc(-c3cc(Cl)ccc3OC(F)F)c(NC(=O)c3cnn4cccnc34)s2)CC1 [Example 188, Pyrazolo[1,5-a]pyrimidine-3-carboxylic acid [4-(5-chloro-2-difluoromethoxy-phenyl)-2-(4-dimethylamino-piperidin-1-yl)-thiazol-5-yl]-amide] | 1.26 nM | 5.8 nM | – | 0.0349 µM
O=C(Nc1cn(CC(=O)N2CCCCC2)nc1-c1cc(Cl)ccc1OC(F)F)c1cnn2cccnc12 [Example 308, N-[3-[5-chloro-2-(difluoromethoxy)phenyl]-1-[2-oxo-2-(1-piperidyl)ethyl]pyrazol-4-yl]pyrazolo[1,5-a]pyrimidine-3-carboxamide] | – | 1.5 nM | 0.55 nM | 0.0236 µM
O=C(Nc1cn(CC(=O)N2CCC(OCC(=O)N3CCOCC3)CC2)nc1-c1cc(Cl)ccc1OC(F)F)c1cnn2cccnc12 [Example 453, N-(3-(5-chloro-2-(difluoromethoxy)phenyl)-1-(2-(4-(2-morpholino-2-oxoethoxy)piperidin-1-yl)-2-oxoethyl)-1H-pyrazol-4-yl)pyrazolo[1,5-a]pyrimidine-3-carboxamide] | 0.41 nM | – | 1.3 nM | 0.0304 µM
N#CCCCNC1CCN(C(=O)Cn2cc(NC(=O)c3cnn4cccnc34)c(-c3cc(Cl)ccc3OC(F)F)n2)CC1 [Example 456, N-(3-(5-chloro-2-(difluoromethoxy)phenyl)-1-(2-(4-(3-cyanopropyl-amino)piperidin-1-yl)-2-oxoethyl)-1H-pyrazol-4-yl)pyrazolo[1,5-a]pyrimidine-3-carboxamide] | 0.49 nM | – | 1.11 nM | 0.041 µM
O=C(Nc1cn(CC(=O)N2CCN(CC3CCOCC3)CC2)nc1-c1cc(Cl)ccc1OC(F)F)c1cnn2cccnc12 [Example 458, N-(3-(5-chloro-2-(difluoromethoxy)phenyl)-1-(2-oxo-2-(4-((tetrahydro-2H-pyran-4-yl)methyl)piperazin-1-yl)ethyl)-1H-pyrazol-4-yl)pyrazolo[1,5-a]pyrimidine-3-carboxamide] | 0.47 nM | – | 0.9 nM | 0.0081 µM
CN(CCCC#N)C1CCN(C(=O)Cn2cc(NC(=O)c3cnn4cccnc34)c(-c3cc(Cl)ccc3OC(F)F)n2)CC1 [Example 464, N-(3-(5-chloro-2-(difluoromethoxy)phenyl)-1-(2-(4-((3-cyanopropyl)(methyl)amino)piperidin-1-yl)-2-oxoethyl)-1H-pyrazol-4-yl)pyrazolo[1,5-a]pyrimidine-3-carboxamide] | 0.49 nM | – | 1.41 nM | 0.0095 µM

Continued by falling Ki [1], values first:

Ki [1] | EC50 [2] | Ki [4] | Compound | EC50 [3]
0.4 nM | – | 0.23 nM | CN1CCC(n2cc(Cn3cc(NC(=O)c4cnn5cccnc45)c(-c4cc(Cl)ccc4OC(F)F)n3)nn2)CC1 [Example 454, N-(3-(5-chloro-2-(difluoromethoxy)phenyl)-1-((1-(1-methylpiperidin-4-yl)-1H-1,2,3-triazol-4-yl)methyl)-1H-pyrazol-4-yl)pyrazolo[1,5-a]pyrimidine-3-carboxamide] | 0.0235 µM
0.4 nM | – | 0.84 nM | N#CCCCN1CCN(C(=O)Cn2cc(NC(=O)c3cnn4cccnc34)c(-c3cc(Cl)ccc3OC(F)F)n2)CC1 [Example 461, N-(3-(5-chloro-2-(difluoromethoxy)phenyl)-1-(2-(4-(3-cyanopropyl)piperazin-1-yl)-2-oxoethyl)-1H-pyrazol-4-yl)pyrazolo[1,5-a]pyrimidine-3-carboxamide] | 0.0117 µM
0.39 nM | – | 1.1 nM | O=C(Nc1cn(CC(=O)N2CCN(CCN3CCSCC3)CC2)nc1-c1cc(Cl)ccc1OC(F)F)c1cnn2cccnc12 [Example 460, N-(3-(5-chloro-2-(difluoromethoxy)phenyl)-1-(2-oxo-2-(4-(2-thiomorpholinoethyl)piperazin-1-yl)ethyl)-1H-pyrazol-4-yl)pyrazolo[1,5-a]pyrimidine-3-carboxamide] | 0.0068 µM
0.38 nM | 3.3 nM | – | COCCN1CCN(C(=O)Cn2cc(NC(=O)c3cnn4cccnc34)c(-c3cc(Cl)ccc3OC(F)F)n2)CC1 [Example 229, N-[3-[5-chloro-2-(difluoromethoxy)phenyl]-1-[2-[4-(2-methoxyethyl)piperazin-1-yl]-2-oxo-ethyl]pyrazol-4-yl]pyrazolo[1,5-a]pyrimidine-3-carboxamide] | 0.0516 µM
0.38 nM | – | 0.86 nM | N#CC1CCN(C2CCN(C(=O)Cn3cc(NC(=O)c4cnn5cccnc45)c(-c4cc(Cl)ccc4OC(F)F)n3)CC2)CC1 [Example 462, N-(3-(5-chloro-2-(difluoromethoxy)phenyl)-1-(2-(4-cyano-1,4′-bipiperidin-1′-yl)-2-oxoethyl)-1H-pyrazol-4-yl)pyrazolo[1,5-a]pyrimidine-3-carboxamide] | 0.0108 µM
0.31 nM | – | 0.7 nM | CC(F)(F)CNC1CCN(C(=O)Cn2cc(NC(=O)c3cnn4cccnc34)c(-c3cc(Cl)ccc3OC(F)F)n2)CC1 [Example 463, N-(3-(5-chloro-2-(difluoromethoxy)phenyl)-1-(2-(4-(2,2-difluoro-propylamino)piperidin-1-yl)-2-oxoethyl)-1H-pyrazol-4-yl)pyrazolo[1,5-a]pyrimidine-3-carboxamide] | 0.007 µM
0.3 nM | – | 0.15 nM | O=C(Nc1cn(Cc2cn(C3CCN(C4CCOC4)CC3)nn2)nc1-c1cc(Cl)ccc1OC(F)F)c1cnn2cccnc12 (stereo not drawn) [Example 455, N-(3-(5-chloro-2-(difluoromethoxy)phenyl)-1-((1-(1-(tetrahydrofuran-3-yl)piperidin-4-yl)-1H-1,2,3-triazol-4-yl)methyl)-1H-pyrazol-4-yl)pyrazolo[1,5-a]pyrimidine-3-carboxamide] | 0.021 µM
0.24 nM | – | 0.56 nM | CN(CC(C)(C)C#N)C1CCN(C(=O)Cn2cc(NC(=O)c3cnn4cccnc34)c(-c3cc(Cl)ccc3OC(F)F)n2)CC1 [Example 465, N-(3-(5-chloro-2-(difluoromethoxy)phenyl)-1-(2-(4-((2-cyano-2-methylpropyl)(methyl)amino)piperidin-1-yl)-2-oxoethyl)-1H-pyrazol-4-yl)pyrazolo[1,5-a]pyrimidine-3-carboxamide] | 0.0114 µM
